US11542255B2, “Sulfonylureas and sulfonylthioureas as NLRP3 inhibitors” (Inflazome Limited, priority 2017, dated 2023)
Where a name gives a salt, the structure may show the parent alone.

target: NLRP3 (Homo sapiens, UniProt Q96P20); assay: THP-1 cells pyroptosis assay (LPS + nigericin, resazurin readout); assay type: cell-based; design: Seed THP-1 cells (25,000 cells/well) containing 1.0 μg/ml LPS in 40 μl of RPMI medium; host or cells: THP-1 cells; settings: NLRP3 inhibitory activity, 1.0 μg/ml LPS, 5 μM nigericin
Protocol: THP-1 cells (ATCC #TIB-202) were grown in RPMI containing L-glutamine (Gibco #11835) supplemented with 1 mM sodium pyruvate (Sigma #S8636) and penicillin (100 units/ml)/streptomycin (0.1 mg/ml) (Sigma #P4333) in 10% Fetal Bovine Serum (FBS) (Sigma #F0804). The cells were routinely passaged and grown to confluency (˜10^6 cells/ml). On the day of the experiment, THP-1 cells were harvested and resuspended into RPMI medium (without FBS). The cells were then counted and viability (>90%) checked by Trypan blue (Sigma #T8154). Appropriate dilutions were made to give a concentration of 625,000 cells/ml. To this diluted cell solution was added LPS (Sigma #L4524) to give a […] Final Assay Concentration (FAC). 40 μl of the final preparation was aliquoted into each well of a 96-well plate. The plate thus prepared was used for compound screening.
The following method step-by-step assay was followed for compound screening. • 1. Seed THP-1 cells (25,000 cells/well) containing 1.0 μg/ml LPS in 40 μl of RPMI medium (without FBS) in 96-well, black walled, clear bottom cell culture plates coated with poly-D-lysine (VWR #734-0317) • 2. Add 5 μl compound (8 points half-log dilution, with 10 μM top dose) or vehicle (DMSO 0.1% FAC) to the appropriate wells • 3. Incubate for 3 hrs at 37° C. in 5% CO2 • 4. Add 5 μl nigericin (Sigma #N7143) (FAC 5 μM) to all wells • 5. Incubate for 1 hr at 37° C. and 5% CO2 • 6. At the end of the incubation period, spin plates at 300×g for 3 mins and remove supernatant • 7. Then add 50 μl of resazurin (Sigma #R7017) (FAC 100 μM resazurin in RPMI medium without FBS) and incubate plates for a further 1-2 hrs at 37° C. and 5% CO2 • 8. Plates were read in an Envision reader at Ex 560 nm and Em 590 nm • 9. IC50 data is fitted to a non-linear regression equation (log inhibitor vs response-variable slope 4-parameters)

NLRP3, sequence (Q96P20 whole entry): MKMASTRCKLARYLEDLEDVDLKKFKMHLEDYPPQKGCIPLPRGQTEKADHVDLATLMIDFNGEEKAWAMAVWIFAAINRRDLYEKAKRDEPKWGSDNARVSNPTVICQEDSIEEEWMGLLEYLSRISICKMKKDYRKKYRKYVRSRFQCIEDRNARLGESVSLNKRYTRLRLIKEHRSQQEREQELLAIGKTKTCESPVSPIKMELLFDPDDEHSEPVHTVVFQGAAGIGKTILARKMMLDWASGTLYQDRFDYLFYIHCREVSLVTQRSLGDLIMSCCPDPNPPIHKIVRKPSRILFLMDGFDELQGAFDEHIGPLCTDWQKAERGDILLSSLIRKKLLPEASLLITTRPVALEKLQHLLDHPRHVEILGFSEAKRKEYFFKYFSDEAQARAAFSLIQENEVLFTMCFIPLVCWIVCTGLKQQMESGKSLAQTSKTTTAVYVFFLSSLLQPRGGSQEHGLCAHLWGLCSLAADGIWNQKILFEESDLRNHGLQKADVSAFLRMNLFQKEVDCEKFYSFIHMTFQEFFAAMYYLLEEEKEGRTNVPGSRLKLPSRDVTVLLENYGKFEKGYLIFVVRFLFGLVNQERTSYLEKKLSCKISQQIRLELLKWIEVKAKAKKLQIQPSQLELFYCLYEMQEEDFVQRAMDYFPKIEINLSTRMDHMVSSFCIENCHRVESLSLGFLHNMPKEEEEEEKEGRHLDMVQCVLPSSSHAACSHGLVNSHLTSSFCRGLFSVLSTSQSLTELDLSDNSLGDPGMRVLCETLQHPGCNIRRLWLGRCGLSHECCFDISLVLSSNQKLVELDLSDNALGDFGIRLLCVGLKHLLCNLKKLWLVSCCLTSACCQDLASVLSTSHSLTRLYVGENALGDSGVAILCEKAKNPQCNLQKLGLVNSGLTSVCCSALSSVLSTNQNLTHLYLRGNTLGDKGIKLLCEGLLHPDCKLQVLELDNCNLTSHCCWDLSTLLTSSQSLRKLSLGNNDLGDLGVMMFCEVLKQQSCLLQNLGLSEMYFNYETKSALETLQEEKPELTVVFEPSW

| SMILES | IC50 |
| --- | --- |
| CC(C)c1cc(F)cc(-c2cncnc2)c1NC(=O)NS(=O)(=O)c1cc(CN(C)C)n(C(C)C)n1 [Example 42, 5-((Dimethylamino)methyl)-N-((4-fluoro-2-isopropyl-6-(pyrimidin-5-yl)phenyl)carbamoyl)-1-isopropyl-1H-pyrazole-3-sulfonamide] | 640 to 2560 nM |
| Cn1nc(S(=O)(=O)NC(=O)Nc2c3c(cc4c2CCC4)CCC3)cc1CN1CCOCC1 [Example 121, N-((1,2,3,5,6,7-Hexahydro-s-indacen-4-yl)carbamoyl)-1-methyl-5-(morpholinomethyl)-1H-pyrazole-3-sulfonamide] | 640 to 2560 nM |
| CC(C)c1cc(Cl)cc(C(C)C)c1NC(=O)NS(=O)(=O)c1cc(C(=O)N(C)CC#N)n(C)n1 [Example 130, 3-(N-((4-Chloro-2,6-diisopropylphenyl)carbamoyl)sulfamoyl)-N-(cyanomethyl)-N,1-dimethyl-1H-pyrazole-5-carboxamide] | 640 to 2560 nM |
| CC(c1cc(S(=O)(=O)[N-]C(=O)Nc2c3c(cc4c2CCC4)CCC3)nn1C)[N+](C)(C)C (stereo not shown) [Example 19, ((1,2,3,5,6,7-Hexahydro-s-indacen-4-yl)carbamoyl)((1-methyl-5-(1-(trimethylammonio)ethyl)-1H-pyrazol-3-yl)sulfonyl)amide] | 640 to 2560 nM |
| CCn1nc(S(=O)(=O)NC(=O)Nc2c(-c3cccc(OC)c3)ccc3c2CCC3)cc1CN(C)C [Example 182] | 640 to 2560 nM |
| CN(C)Cc1nc(S(=O)(=O)NC(=O)Nc2c3c(cc4c2CCC4)CCC3)cn1C [Example 167, 2-((Dimethylamino)methyl)-N-((1,2,3,5,6,7-hexahydro-s-indacen-4-yl)carbamoyl)-1-methyl-1H-imidazole-4-sulfonamide] | 2560 to 10000 nM |
| CN(Cc1cc(S(=O)(=O)NC(=O)Nc2c3c(cc4c2CCC4)CCC3)nn1C)CC(F)(F)F [Example 97, N-((1,2,3,5,6,7-Hexahydro-s-indacen-4-yl)carbamoyl)-1-methyl-5-((methyl(2,2,2-trifluoroethyl)amino)methyl)-1H-pyrazole-3-sulfonamide, Sodium Salt] | 160 to 640 nM |
| CN1CC(N(C)Cc2cc(S(=O)(=O)NC(=O)Nc3c4c(cc5c3CCC5)CCC4)nn2C)C1 [Example 8, N-((1,2,3,5,6,7-Hexahydro-s-indacen-4-yl)carbamoyl)-1-methyl-5-((methyl(1-methylazetidin-3-yl)amino)methyl)-1H-pyrazole-3-sulfonamide, Sodium Salt] | 160 to 640 nM |
| CC(C)c1cc(F)cc(-c2cncnc2)c1NC(=O)NS(=O)(=O)c1cc(CN(C)C)n(C)n1 [Example 43, 5-((Dimethylamino)methyl)-N-((4-fluoro-2-isopropyl-6-(pyrimidin-5-yl)phenyl)carbamoyl)-1-methyl-1H-pyrazole-3-sulfonamide] | 640 to 2560 nM |

Continued, values first:

| IC50 | SMILES |
| --- | --- |
| 160 to 640 nM | CC(C)c1cc(F)cc(C(C)C)c1NC(=O)NS(=O)(=O)c1cc(CN(C)C)n(C(C)C)n1 [Example 61, 5-((Dimethylamino)methyl)-N-((4-fluoro-2,6-diisopropylphenyl)carbamoyl)-1-isopropyl-1H-pyrazole-3-sulfonamide] |
| 2560 to 10000 nM | CC(C)c1cc(F)cc(C(C)C)c1NC(=O)NS(=O)(=O)c1cc(CN(C)C2CN(C)C2)n(C)n1 [Example 9, N-((4-Fluoro-2,6-diisopropylphenyl)carbamoyl)-1-methyl-5-((methyl(1-methylazetidin-3-yl)amino)methyl)-1H-pyrazole-3-sulfonamide, Sodium Salt] |
| 640 to 2560 nM | CC(C)c1cc(F)cc(C(C)C)c1NC(=O)NS(=O)(=O)c1cc(CN(C)C2CC2)n(C)n1 [Example 87, 5-((Cyclopropyl(methyl)amino)methyl)-N-((4-fluoro-2,6-diisopropylphenyl)carbamoyl)-1-methyl-1H-pyrazole-3-sulfonamide, sodium Salt] |
| 2560 to 10000 nM | CNCCn1nc(S(=O)(=O)NC(=O)Nc2c3c(cc4c2CCC4)CCC3)cc1C(=O)O [Example 2, 3-(N-((1,2,3,5,6,7-Hexahydro-s-indacen-4-yl)carbamoyl)sulfamoyl)-1-(2-(methylamino)ethyl)-1H-pyrazole-5-carboxylic Acid] |
| 640 to 2560 nM | CC(C)c1cc(Cl)cc(C(C)C)c1NC(=O)NS(=O)(=O)c1cc(CN2CCOCC2)n(C)n1 [Example 120, N-((4-Chloro-2,6-diisopropylphenyl)carbamoyl)-1-methyl-5-(morpholinomethyl)-1H-pyrazole-3-sulfonamide, Sodium Salt] |
| 640 to 2560 nM | COCCN(C)Cc1cc(S(=O)(=O)NC(=O)Nc2c(C(C)C)cc(F)cc2C(C)C)nn1C [Example 118, N-((4-Fluoro-2,6-diisopropylphenyl)carbamoyl)-5-(((2-methoxyethyl)(methyl)amino)methyl)-1-methyl-1H-pyrazole-3-sulfonamide, Sodium Salt] |
| 640 to 2560 nM | CCn1nc(S(=O)(=O)NC(=O)Nc2c(Br)ccc3c2CCC3)cc1CN(C)C [Example 16, N-((5-Bromo-2,3-dihydro-1H-inden-4-yl)carbamoyl)-5-((dimethylamino)methyl)-1-ethyl-1H-pyrazole-3-sulfonamide] |
| 640 to 2560 nM | CC(C)c1cc(F)cc(-c2ccnc(C(N)=O)c2)c1NC(=O)NS(=O)(=O)c1cc(CN(C)C)n(C)n1 [Example 28, 4-(2-(3-((5-((Dimethylamino)methyl)-1-methyl-1H-pyrazol-3-yl)sulfonyl)ureido)-5-fluoro-3-isopropylphenyl)picolinamide] |
| 160 to 640 nM | CN(Cc1cc(S(=O)(=O)NC(=O)Nc2c3c(cc4c2CCC4)CCC3)nn1C)C1CC1 [Example 85, 5-((Cyclopropyl(methyl)amino)methyl)-N-((1,2,3,5,6,7-hexahydro-s-indacen-4-yl)carbamoyl)-1-methyl-1H-pyrazole-3-sulfonamide, Sodium Salt] |
| 640 to 2560 nM | CC(C)n1nc(S(=O)(=O)[N-]C(=O)Nc2c3c(cc4c2CCC4)CCC3)cc1C(C)[N+](C)(C)C (stereo not shown) [Example 18, ((1,2,3,5,6,7-Hexahydro-s-indacen-4-yl)carbamoyl)((1-isopropyl-5-(1-(trimethylammonio)ethyl)-1H-pyrazol-3-yl)sulfonyl)amide] |
